Data from patent publication US10799456B2, “Multiple drug lipid nanoparticle composition and related methods for extended drug levels in blood and lymph tissue” (priority 2015, dated 2020).

How the values were obtained:
[1] = Intracellular drug concentration in inguinal lymph node mononuclear cells (LNMCs); settings: for Kp at 24 h / concentration at 24 h: male, Macaca nemestrina, in vivo; for Kp at 24 h: LN/plasma ratio; for concentration at 24 h: sc, Mean drug concentration, Lymph node
Procedure: (§1) Four macaques were divided into two treatment groups (two animals per group). […] Data were normalized to the anti-HIV LNP dose for comparative analysis.
(§2) Plasma was removed, PBMCs were isolated by the density gradient method, and cells were aliquoted into pellets of approximately 2 million PBMCs each. An inguinal lymph node was surgically excised 24 h after drug administration (n=2 per treatment), LNMCs were isolated by passage through a 100-lm nylon cell strainer (Corning, Tewksbury, Mass.), and cells were aliquoted into pellets of approximately 1-2 million LNMCs each. All samples were stored at −80° C. prior to drug analysis.
(§3) Plasma concentrations of all three drugs were analyzed simultaneously by liquid chromatography-tandem mass spectrometry using a recently published method. […] Antimicrob Agents Chemother 2014; 58(5):2675-2680, incorporated herein by reference in its entirety. PBMC and LNMC pellets were lysed using 200 μl water/methanol (1:1 v/v), sonicated for 10 min, and then extracted and analyzed using the same method as cited above. Intracellular concentrations were converted to ng/ml with the assumption that each cell has a volume of 4×10^−9 ml. Alberts B, Johnson A, Lewis J, et al. Molecular Biology of the Cell, 4 ed. Garland Science, New York, 2002, incorporated herein by reference in its entirety.

[2] = Sucrose gradient test of drug association; type: physicochemical; settings: 5-20% sucrose gradient, 200,000 g, 4 hr, LPV/RTV/TFV LNPs, single miscible solvent method
Procedure: The sucrose gradient test to determine this characteristic is described in Example 5. Briefly, the sucrose gradient test comprises subjecting the multi-drug lipid nanoparticle to a continuous 5%-20% sucrose gradient and applying a centrifugal force of 200,000 g for 4 hours. The unassociated small molecules separate and float to the less dense fractions, whereas the associated small molecule agents sediment with the stable lipid nanoparticles in the denser gradients. The relative amounts of the unassociated and associated small molecule reagents can be quantified and, thus, compared.
The sucrose gradient test centrifugation test separates any unbound drugs from multi-drug lipid nanoparticles by sedimentation of lipid-drug particles through a sucrose gradient with increasing density to strip off unbound drugs. Under these conditions, all the free drugs in solution remained at (or floated to) the top of gradient where the sucrose density is low. Specifically, using a continuous gradient of 5-20% (with 65% cushion) sucrose, the lipid-drug particle mixture was subjected to centrifugal force at 200,000 g for 4 hr. Through this process, we were able to separate bound and unbound drug fractions. […] It is noted that the observed percentage of multi drug lipid nanoparticle association for the other two drugs (LPV and RTV) are consistent with data in Table 11.

[3] = Plasma drug exposure after sc LPV/RTV/PMPA, free vs anti-HIV LNP, crossover; settings: for LNP/free ratio of plasma AUC 0-168: increase in total drug exposure, fold; for concentration at 24 h: sc, Mean drug concentration, Plasma
Source text: Four young adult male macaques (Macaca nemestrina, 2.9-4.0 kg) were housed and cared for by the Washington National Primate Research Center (WaNPRC) under an approved Institutional Animal Care and Use Committee protocol.
The vehicle for the first suspension was bicarbonate-buffered saline with 3% ethanol and 0.2% bovine serum albumin. The vehicle for the second suspension was bicarbonate-buffered saline with 8% DMSO and 0.1% Tween 20.
as §1, §2, §3
Data were analyzed by paired two-tailed Student's t-test with p<0.05 considered statistically significant.

[4] = Drug incorporation/encapsulation (association) efficiency of multi-drug LNPs by dialysis; type: physicochemical; settings: for Degree of incorporation (% total): anti-HIV LNPs LPV/RTV/PMPA
Procedure: The anti-HIV LNP formulations contain both unbound drug and drugs bound to lipid nanoparticles. […] Drugs were quantified by LC-MS/MS using acetonitrile precipitation. Encapsulation efficiency (EE) was calculated as follows: […]

[5] = pH dependent drug release from LPV/RTV/TFV lipid nanoparticles; type: physicochemical; settings: 2 hrs
Source text: As described above, we established the pH-dependent association of various drugs to lipids at neutral pH and the consequent release of the drugs when pH is lowered. Also described above, this stable integration and pH-dependent release of drugs from the multiple drug lipid nanoparticles was consistent for both lipophilic and water soluble compounds. To confirm the pH dependent release of the individual drugs from the multiple drug combination lipid nanoparticles, LPV/RTV/PMPA(TFV) lipid nanoparticles, assembled as described above, were subjected to different pH environments, and the free drug component of the supernatant was assayed to determine the amount of release. […] When a lipid nanoparticle is localized in tissues and taken up by HIV-infected cells, the incorporated antiretroviral drugs are then released inside the cell organelles (such as endosome and lysosomes) when the pH is lowered.

[6] = Plasma time course of ATV/RTV/TFV lipid nanoparticles in primates; type: in vivo, Macaca nemestrina; settings: for AUC fraction (% total) 8-168 h: male, Macaca nemestrina, in vivo, sc
Procedure: All animal procedures were performed under an approved protocol reviewed by the University of Washington Institutional Animal Care and Use Committee. […] ATV, RTV, and TFV in the plasma were extracted in duplicate and analyzed with a liquid chromatography-mass spectrometry assay with a validated reverse phase HPLC/MS/MS method, similar to that of lopinavir (LPV), RTV, and TFV. […] Antimicrobial agents and chemotherapy. 2014. The linear trapezoidal method was used to calculate the area under the plasma drug concentration-time curve (AUC) for ATV, RTV, and TFV during the time course, which was close to 168 h post-dosing. […] All drugs in buffer and plasma were analyzed using a validated HPLC/MS/MS analytical method, capable of analyzing […], and TFV. The one-step analysis for LPV, RTV, and TFV was published previously. […] Antimicrobial agents and chemotherapy. 2014. Briefly, the HPLC system was outfitted with a Shimadzu 20AD HPLC (Shimadzu Scientific Instruments, Inc., Pleasanton, Calif.). […] Multiple reaction monitoring (MRM) was used to detect transition ions from a specific precursor ion to product ion. The analytes were detected using the following m/z transitions: 705.5/168.2 for ATV, 548.3/392.3 for DRV, 721.3/296.1 for RTV, 288.1/176 for TFV, and 238.1/193.2 for cyheptamide.

[7] = male, Macaca nemestrina, in vivo
[8] = male, Macaca nemestrina, in vivo, Anti-HIV LNP treatment
[9] = male, Macaca nemestrina, in vivo, Free drug treatment
[10] = plasma, listed as Tenofovir (PMPA)
[11] = Combination 1, lipid:LPV:RTV:TFV 115:10:5:15, large scale
[12] = Combination 2, lipid:ATZ:RTV:TFV 115:10:5:15, large scale

| Structure (SMILES) | Kp at 24 h ([1]; Free drug treatment, 24 h) | concentration at 24 h ([1]; Anti-HIV LNP treatment) [ng/mL] | concentration at 24 h ([1]; Free drug treatment) [ng/mL] | % association to lipid-drug particles (bound fraction) [2] | AUC 0-8 (%) of total, LNP [3, 7] [%] | AUC 8-168 (%) of total, LNP [3, 7] [%] | concentration at 24 h [3, 8] [ng/mL] | concentration at 24 h [3, 9] [ng/mL] | % particle-bound [4, 11] | % particle-bound [4, 12] | Degree of incorporation (% total) ([4]; laboratory scale (0.1-0.4 ml)) [%] | % Drug released from anti-HIV nanoparticles ([5]; pH 4.0, 37° C.) [%] | % Drug released from anti-HIV nanoparticles ([5]; pH 5.5, 37° C.) [%] | % Drug released from anti-HIV nanoparticles ([5]; pH 6.5, 37° C.) [%] | % Drug released from anti-HIV nanoparticles ([5]; pH 7.4, 37° C.) [%] | AUC fraction (% total) 8-168 h [6] [%] | also measured |
| --- | --- | --- | --- | --- | --- | --- | --- | --- | --- | --- | --- | --- | --- | --- | --- | --- | --- |
| C[C@H](Cn1cnc2c(N)ncnc21)OCP(=O)(O)O [Tenofovir (TFV), [(2R)-1-(6-aminopurin-9-yl)propan-2-yl]oxymethylphosphonic acid] | 284 | 190 ± 22.8 | 256 ± 31.5 | around 75.5% | 9.1 | 90.9 | 3600 ± 3510 | 0.9 ± 1.1 | (9.9 ± 2.9) % | (7.9 ± 1.8) % | 11.8 ± 5.1 | 28.7 ± 0.9 | 11.2 ± 1.5 | 15.9 ± 5.4 | 0 ± 2 | 97.4 | LNP/free ratio, mononuclear cells of inguinal nodes ([1]; 24 h): 0.7; Ratio comparison between treatments (LNP/free), Lymph node ([1]; 24 h): 0.7; LNP/free ratio, mononuclear cells of inguinal nodes ([1]; 24 h, listed as TFV): 0.7; Kp at 24 h ([1]; Anti-HIV LNP treatment, 24 h): 0.1; % association to lipid-drug particles (bound fraction) ([2]; listed as Tenofovir (TFV or PMPA)): 75.5%; AUC LNP/free ratio ([3]; 0-168 h): 7.0; Ratio comparison between treatments (LNP/free), Plasma ([3]; 24 h): 3992.8; LNP/free ratio of plasma AUC 0-168 [3]: 7.0; LNP/free ratio of plasma AUC 0-168 ([3]; listed as TFV): 7; AUC fraction (% of total) Anti-HIV LNP 0-24 h ([3]; plasma): 48.8 ± 33.7%; AUC fraction (% of total) Free drug 0-24 h ([3]; plasma): 99.9 ± 0.2%; AUC Free drug 0-168 h ([3]; plasma, sc 25/14.3/17.1 mg/kg LPV/RTV/PMPA, four animals): 56600 ± 17040 ng·h/mL; AUC fraction (% of total) Anti-HIV LNP 24-168 h ([3]; plasma, listed as PMPA): 51.2%; AUC fraction (% of total) Free drug 24-168 h ([3]; plasma, listed as PMPA): 0.1%; AUC fraction (% of total) Anti-HIV LNP 24-168 h [3, 10]: 51.2 ± 33.7%; AUC fraction (% of total) Free drug 24-168 h [3, 10]: 0.1 ± 0.2%; % particle-bound ([4]; Combination 3, lipid:LPV:EFV:TFV 200:26.6:20:40, large scale): (7.9) %; stable lipid association ([4]; across drug combinations): 8-10%; Degree of incorporation (% total) ([4]; clinical scale (15-40 ml), listed as PMPA): 12%; Degree of incorporation (% total) ([4]; clinical scale (15-40 ml), listed as Tenofovir): 11.9 ± 3.0% |
| CC(C)c1nc(CN(C)C(=O)N[C@H](C(=O)N[C@@H](Cc2ccccc2)C[C@H](O)[C@H](Cc2ccccc2)NC(=O)OCc2cncs2)C(C)C)cs1 [Ritonavir (RTV), Ritonavir] | 5.5 | 1640 ± 19 | 32.6 ± 32.6 | 76% | 11.3 | 88.7 | 164 ± 116 | 5.9 ± 9.3 | (83.4 ± 1.4) % | (88.5 ± 3.1) % | 74.2 ± 8.4 | 94.9 ± 0.7 | 29.0 ± 11.6 | 3.2 ± 4.9 | 2 ± 1 | 80.4 | AUC fraction (% of total) Anti-HIV LNP 24-168 h [3, 7]: 57.0 ± 12.5%; Degree of incorporation (% total) ([4]; clinical scale (15-40 ml)): 90.7 ± 7.4%; AUC 0-8 h ([6]; plasma, average of two primates, sc ATV/RTV/TFV LNPs 25/12.8/15.3 mg/kg): 339.1 ng·h/mL |
